Measured values as given in patent US20080119483A1, “COMPOSITIONS AND METHODS FOR INHIBITING PROTOZOAN GROWTH” (priority 2006, published 2008).
pEC50: −log10 of the molar value. “And” between values parts separate entries of the source, which are not always exact repeats. Equal values may be shown once. “Also recorded” adds a separate entry of the source. Read-outs that look alike come from different tables or passages of the source. Starred links: 1 amine or outer side, 2 acyl side, 3 side chain; linkers in the order of their positions; H or OH if unused. Non-standard residues stand in square brackets, D forms with d. Residues, ends and D or L forms follow the SMILES beside them. X1 = CC[C@@H](C)[C@@H](O[*:1])C(=O)[*:2]; NMeVal(β-OH) = CN[C@H](C(=O)O)C(C)(C)O; NMeF = CN[C@@H](Cc1ccccc1)C(=O)O; aIle = CC[C@@H](C)[C@H](N)C(=O)O; NMeV = CN[C@H](C(=O)O)C(C)C

Columns and labels:
[1] = system: L. major spt2^− promastigotes; assay: microbe, parasite or virus in culture; type: cell-based, Leishmania major
Procedure: (§1) Log phase L. major LV39 WT and spt2 promastigotes were inoculated at 1.0×10^5 cells/ml and culture densities were determined 48 hours later.
(§2) Wild type (WT) L. major LV39 clone 5 (Rho/SU/59/P), FV1 (MOHM/IL/80/Friedlin virulent clone 1), spt2^− (Δspt2::HYG/Dspt2::PAC), ads1^− (Δads1::HYG/Dads1::SAT), and spt2^−/+SPT2 (Δspt2::HYG/Dspt2::PAC/+pXG-SPT2) cells were grown in M199 with 10% FBS and supplements as described [Zhang, et al., 2003; Kapler, et al., 1990]. For growth inhibition assays, promastigotes were inoculated at 1.0×10^5 cells/ml (in T25 flasks, 5 ml of medium per flask) in various concentrations of drugs. All cultures contained equivalent amount of DMSO or methanol (0.1% or less, from drug stocks). After 48 or 96 (for ads1^− only) hours, culture densities were determined using a Coulter counter (Z1, Beckman) and effects of drugs on growth were assessed in relative to cultures grown in the absence of drugs.

[2] = system: L. major LV39 WT promastigotes; assay: microbe, parasite or virus in culture; type: cell-based, Leishmania major
Procedure: as §1, §2
A classical isobologram was constructed by plotting EC50s of drugs either alone or in combination.

[3] = system: L. major ads1^− promastigotes; assay: Growth inhibition assay, EPL-null ads1^− mutant versus FV1 WT; type: cell-based, Leishmania major; conditions: 96 hours for ads1^−
Procedure: as §2

[4] = system: L. major LV39 WT promastigotes; assay: Composition of free sterols by GC/MS, WT promastigotes; type: cell-based, Leishmania major; conditions: for 5-dehydroepisterol (%) / 14-methylfecosterol (%) / Cholesterol (%) / Episterol (%) / Ergosterol (%) / Total sterols/cell: 48 hours
Procedure: (§3) Log phase L. major LV39 WT and spt2^− promastigotes were grown in the presence or absence of ITZ or CLT. Culture densities were determined 48 hours later and total lipids were extracted and the composition of free sterols was determined by GC/MS as described in Materials and Methods. ND: not detectable. Each experiment was repeated at least 3 times and results from one representative set were shown.
(§4) Here WT and spt2^− parasites were grown in various concentrations of ITZ (0.001 nM to 1 μM) or CLT (10 nM to 5 μM). Effects of ITZ and CLT on growth, sterol composition and DRM were analyzed after 48 hours. Basically, culture densities were determined using a particle counter and drugs' effects on growth were assessed in comparison to control cells (no drug); sterol lipids were extracted and analyzed by GC/MS and the percentage of 14-methylfecosterol (among all detectable sterol lipids) was used to reflect changes in sterol composition (see Table 2). DRMs were also isolated and the percentage of GP63 that were insoluble at 4° C. was used as an indicator for the integrity of DRM (see FIG. 2). Two to four independent experiments were performed and the averaged results were plotted in FIG. 3.
(§5) Total lipids were extracted using the Folch's method [Folch, et al., 1957]. Briefly, promastigotes were harvested by centrifugation and washed once with PBS. Pellets were resuspended in chloroform:methanol (2:1) at 1.0×10^8 cells/ml with the addition of cholesta-3,5-diene (Sigma-Aldrich, FW 368.7) at 0.5 mg/10^8 cells (6.6×10^7/cell). After vortexing for 30 s, cell debris was removed by centrifugation (1000 g for 10 min) and samples were washed with 0.2 volume of 0.9% NaCl. After centrifugation, supernatants were removed and the organic phase solutions were dried under a stream of nitrogen. Samples were then dissolved in chloroform:methanol (1:2) at 1.0×10^9 cells/ml.
(§6) Electron impact gas chromatography/mass spectrometry (GC/MS) analyses of sterol lipids were performed on a Finnigan (San Jose, Calif.) SSQ-7000 single-stage quadrupole mass spectrometer with a Varian (Walnut Creek, Calif.) 3400 GC, which is controlled by Finnigan ICIS software operated on a DEC alpha station. The extracts in solution […] were injected in a splitless mode and analyzed by GC on a Restek (Bellefonte, Pa.) RTX-5 column (15 m, 0.33 mm id, […]). The initial temperature of GC was set at 80° C. for 1 min, increased to 220° C. at a rate of 50° C./min, and then raised to a final temperature of 280° C. at a rate of 10° C./min. The temperatures of the injector, transfer line of the GC column, and of the ion-source were set at 280° C., 280° C., and 240° C., respectively. The full scan mass spectra (50 to 500 Dalton) were acquired at a rate of 1 scan/0.25 Sec.

[5] = system: L. major spt2^− promastigotes; assay: Composition of free sterols by GC/MS, spt2^− promastigotes; type: cell-based, Leishmania major; conditions: 48 hours
Procedure: as §3, §4, §5, §6

[6] = system: Leishmania major LV39 clone 5 promastigotes; assay: Microtiter screen for synergy drugs (cellular ATP, luciferase based); type: cell-based; conditions: follow-up of class d hits
Source text: Following inoculation, parasites were allowed to grow until late logarithmic phase. […] Parasites were inoculated without any drug, singly with the two prototypic synergistic drugs myriocin or itraconazole, or both drugs, at varying concentrations.

[7] = Leishmania major, 48 h, read-out: EC50 in spt2^−
[8] = Leishmania major, 48 h, LV39 WT promastigotes, 48 hours; read-out: EC50 in WT
[9] = spt2^− promastigotes, 48 hours; read-out: EC50 in spt2^−
[10] = LV39 WT promastigotes, 48 hours; read-out: EC50 in WT

`CCCCCCCCCCCCCCCCCCOCC(COP(=O)([O-])OCC[N+](C)(C)C)OC` (racemic) [Edelfosine, 1-O-octadecyl-2-O-methyl-rac-glycero-3-phosphocholine] was tested, and the pEC50 [1, 7] was 5.27, the “EC50 (WT)/EC50 (spt2^−)” value ([1]; ratio) was 0.28 and the “Selectivity against spt2^− parasites (in words)” value (from here on “Selectivity”) ([1]; spt2^− versus LV39 WT) was “failed to show strong selectivity”. For the same compound, the pEC50 [2, 8] was 5.82 and the “Sensitivity of ads1^− mutant in comparison to FV1 WT” value (from here on “Sensitivity of ads1^− mutant”) [3] was “very similar EC50s; also recorded: little or no selectivity”.

In the case of `OC1(c2ccc(-c3ccccc3)cc2)CN2CCC1CC2` (stereo not drawn) [3-(Biphenyl-4-yl)-3-hydroxyquinuclidine], the pEC50 [1, 7] was 5.95, the “EC50 (WT)/EC50 (spt2^−)” value ([1]; ratio) was 1.4 and the “Selectivity” value ([1]; spt2^− versus LV39 WT) was “did not cause the extreme hypersensitivity”. The pEC50 [2, 8] was 5.80.

`C[C@@H]1[C@H](O)[C@@H](C)/C=C/C=C/C=C/C=C/C=C/C=C/C=C/[C@H](O[C@@H]2O[C@H](C)[C@@H](O)[C@H](N)[C@@H]2O)C[C@@H]2O[C@](O)(C[C@@H](O)C[C@@H](O)[C@H](O)CC[C@@H](O)C[C@@H](O)CC(=O)O[C@H]1C)C[C@H](O)[C@H]2C(=O)O` [Amphotericin B] was tested, and the “EC50 (WT)/EC50 (spt2^−)” value ([1]; ratio) was 1.9, the pEC50 [1, 9] was 7.66 and the “Selectivity” value ([1]; spt2^− versus LV39 WT) was “nearly equally well”. For the same compound, the pEC50 [2, 10] was 7.39.

`CC[C@@H](C)[C@@H]1NC(=O)[C@@H]2CCCN2C(=O)[C@H](Cc2ccccc2)N(C)C(=O)[C@H](Cc2ccccc2)NC(=O)[C@H](C(C)C)N(C)C(=O)[C@@H]([C@H](C)CC)OC(=O)[C@H](C(C)(C)O)N(C)C(=O)[C@H](CC(C)C)NC(=O)[C@H](C(C)C)N(C)C1=O` [Aureobasidin A] (cyclo(F[NMeF]P[aIle][NMeV]L[NMeVal(β-OH)][X1][NMeV])) was tested, and the “EC50 (WT)/EC50 (spt2^−)” value ([1]; ratio) was 0.90, the pEC50 [1, 9] was 6.21 and the pEC50 [2, 10] was 6.25. The “Sensitivity of ads1^− mutant” value [3] was “very similar EC50s”.

In the case of `CC(C)[C@@H]1NC(=O)[C@H](Cc2ccccc2)NC(=O)[C@@H]2NC(=O)[C@H](Cc3ccccc3)NC(=O)[C@@H]3CCCN3C(=O)CNC(=O)[C@H](Cc3ccccc3)NC(=O)[C@@H]3CNCCCC[C@@H](C(=O)O)NC(=O)[C@@H]4NC(=O)[C@H](CC(N)=O)NC(=O)CNC(=O)[C@H]([C@@H](O)C(=O)O)NC(=O)[C@H](CSC[C@@H](NC(=O)[C@H](CCC(N)=O)NC(=O)[C@H](CCCNC(=N)N)NC(=O)[C@@H](N)CS[C@H]4C)C(=O)N[C@@H](CS[C@H]2C)C(=O)N3)NC1=O` [Cinnamycin], the “EC50 (WT)/EC50 (spt2^−)” value ([1]; ratio) was 1.0, the pEC50 [1, 9] was 5.51 and the “Selectivity” value ([1]; spt2^− versus LV39 WT) was “nearly equally well”. The pEC50 [2, 10] was 5.51.

`Clc1ccccc1C(c1ccccc1)(c1ccccc1)n1ccnc1` [Clotrimazole] was tested, and the “5-dehydroepisterol (%)” value ([4]; WT + 0.2 μM CLT) was 63.7%, the “14-methylfecosterol (%)” value ([4]; WT + 0.2 μM CLT) was 9.9% and the “Cholesterol (%)” value ([4]; WT + 0.2 μM CLT) was 4.5%. For the same compound, the “Episterol (%)” value ([4]; WT + 0.2 μM CLT) was 17.5%, the “Ergosterol (%)” value ([4]; WT + 0.2 μM CLT) was 4.4% and the Total sterols/cell ([4]; WT + 0.2 μM CLT) was 3.3 × 10^8 /cell. For the same compound, the “5-dehydroepisterol (%)” value ([4]; WT + 0.5 μM CLT) was 42.0%, the “14-methylfecosterol (%)” value ([4]; WT + 0.5 μM CLT) was 47.1% and the “Cholesterol (%)” value ([4]; WT + 0.5 μM CLT) was 3.9%. The “Episterol (%)” value ([4]; WT + 0.5 μM CLT) was 5.1%, the “Ergosterol (%)” value ([4]; WT + 0.5 μM CLT) was 1.9% and the Total sterols/cell ([4]; WT + 0.5 μM CLT) was 2.2 × 10^8 /cell. For the same compound, the “Growth (%)” value ([1]; spt2^− + 0.2 μM CLT, 48 hours) was 93.8%, the “Growth (%)” value ([1]; spt2^− + 0.5 μM CLT, 48 hours) was 62.8% and the “CLT concentration needed to achieve any noticeable effects on growth, sterol composition, or DRMs” value [2] was > 100 nM. The “Growth (%)” value [2] was 76.9% and 78.7%, the “5-dehydroepisterol (%)” value ([5]; spt2^− + 0.2 μM CLT) was 44.1% and the “14-methylfecosterol (%)” value ([5]; spt2^− + 0.2 μM CLT) was 21.5%. The “Cholesterol (%)” value ([5]; spt2^− + 0.2 μM CLT) was 20.2%, the “Episterol (%)” value ([5]; spt2^− + 0.2 μM CLT) was 10.7% and the “Ergosterol (%)” value ([5]; spt2^− + 0.2 μM CLT) was 3.5%. For the same compound, the Total sterols/cell ([5]; spt2^− + 0.2 μM CLT) was 3.5 × 10^8 /cell, the “5-dehydroepisterol (%)” value ([5]; spt2^− + 0.5 μM CLT) was 23.9% and the “14-methylfecosterol (%)” value ([5]; spt2^− + 0.5 μM CLT) was 50.3%. For the same compound, the “Cholesterol (%)” value ([5]; spt2^− + 0.5 μM CLT) was 21.1%, the “Episterol (%)” value ([5]; spt2^− + 0.5 μM CLT) was 3.5% and the “Ergosterol (%)” value ([5]; spt2^− + 0.5 μM CLT) was 1.2%. For the same compound, the Total sterols/cell ([5]; spt2^− + 0.5 μM CLT) was 3.1 × 10^8 /cell.

With `CC(=O)N1CCN(c2ccc(OCC3COC(Cn4ccnc4)(c4ccc(Cl)cc4Cl)O3)cc2)CC1` (stereo not drawn) [Ketoconazole] the “Effect on sterol composition” value ([4]; LV39 WT, 5-10 nM) was “completely altered the sterol composition”, the pEC50 [1, 7] was 8.00 and the “EC50 (WT)/EC50 (spt2^−)” value ([1]; ratio) was 310. The “Effect of supplementation of ethanolamine or choline on the sensitivity in spt2^− parasites” value ([1]; spt2^− with EtN or choline) was “almost no effect”, the Effect on growth [2] was “only minor effect on growth” and the pEC50 ([2]; Leishmania major, 48 h, read-out: EC50 in WT) was ~5.51. The “Sensitivity of ads1^− mutant” value [3] was “hypersensitive”.

`CCn1nc(C(=O)O)c(=O)c2cc3c(cc21)OCO3` [cinoxacin] was tested, and the “Confirmation of synergy with itraconazole” value [6] was “not confirmed”.

`C=C(C)C(=O)C(=CC(=O)O)OC` [penicillic acid] was tested, and the “Confirmation of synergy with itraconazole” value [6] was “confirmed” and the “Synergy effect with itraconazole” value [6] was ~2 fold.

For Mevinolin, the “EC50 (WT)/EC50 (spt2^−)” value ([1]; ratio) was 1.0, the pEC50 ([1]; read-out: EC50 in spt2^−; spt2^− promastigotes, 48 hours) was 4.82 and the “Selectivity” value ([1]; spt2^− versus LV39 WT) was “did not cause the extreme hypersensitivity”. For the same compound, the pEC50 ([2]; read-out: EC50 in WT; LV39 WT promastigotes, 48 hours) was 4.82.
